Values joined by “and” are separate entries in the source; they are usually repeats but may differ in a detail not shown here. Equal values may be shown once.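 Following 48 hours of exposure in 96-well plates, responses at five concentrations were used to interpolate endpoints linearly. Here, GI50 denotes the concentration required for 50% inhibition of growth. At the TGI there is no net growth.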
Columns and labels:
Assay in all cases: DTP human tumour cell line panel, 48 h
[1] = test system: OVCAR-8 ovarian
[2] = test system: NCI-H522 lung
[3] = test system: COLO 205 colon
[4] = test system: HOP-92 NSCLC
[5] = test system: MDA-MB-435
[6] = test system: U251 CNS
[7] = test system: MALME-3M melanoma
[8] = test system: A498 renal
[9] = test system: A549 NSCLC
[10] = test system: K-562 leukemia

| Compound | GI50 [1] | TGI [1] | GI50 [2] [µM] | TGI [2] | GI50 [3] | TGI [3] | GI50 [4] | TGI [4] | GI50 [5] | TGI [5] | GI50 [6] | TGI [6] | GI50 [7] | TGI [7] | GI50 [8] | TGI [8] | GI50 [9] | TGI [9] | GI50 [10] | TGI [10] |
| --- | --- | --- | --- | --- | --- | --- | --- | --- | --- | --- | --- | --- | --- | --- | --- | --- | --- | --- | --- | --- |
| COc1cc(C2=NN(c3ccc(S(N)(=O)=O)cc3)C(c3ccc(Cl)cc3)C2)cc(OC)c1OC (centres undefined) | 4.85 µM | > 100 µM | 3.03 | > 100 µM | 3.52 µM | 12.2 µM | 2.02 µM | 14.5 µM | 3.74 µM | > 100 µM | 3.84 µM | > 100 µM | 11.4 µM | > 100 µM | 1.93 µM | 7.68 µM | 4 µM | > 100 µM | 5.67 µM | > 100 µM |
| O=C1C(=O)c2ccccc2C(O)=C1CC=C(Cl)Cl | 6.49 µM and 4.81 µM | 206 µM and > 100 µM | 8.02 | 40.5 µM and 117 µM and 89.8 µM | 11.4 µM and 11.2 µM | 28.8 µM and > 85.5 µM and > 100 µM | 14.2 µM and 11.8 µM | 50.8 µM and 122 µM and 47.3 µM | 5.7 µM and 7.43 µM | 29.2 µM and 109 µM and 80.6 µM | 2.17 µM and 2.01 µM | > 85.8 µM and 138 µM and > 100 µM | 16.2 µM and 28.2 µM | 51.8 µM and 42.5 µM and 94.5 µM | 15.1 µM and 13.9 µM | 57.8 µM and 96.2 µM and 51 µM | 5.63 µM | > 78.7 µM and 129 µM and > 100 µM | 0.987 µM and 3.19 µM | > 41.5 µM and 175 µM and > 100 µM |
| Cc1cc(C)n(C(=O)c2nn(-c3ccc(Cl)cc3)cc2O)n1 | 5.96 µM | > 100 µM | 7.37 | 50.7 µM | 18.5 µM | 48.1 µM | 4.52 µM | > 100 µM | 3.94 µM | > 100 µM | 2.68 µM | > 100 µM | 4.59 µM | 57.6 µM | 2.9 µM | 8.77 µM | 3.72 µM | > 100 µM | > 100 µM | > 100 µM |
| COc1ccc(Cl)cc1NC(=O)c1cccc([N+](=O)[O-])c1O |  | > 100 µM |  | 38.6 µM |  | 32 µM |  | 16.6 µM |  | > 100 µM |  | > 62.7 µM |  | 19.3 µM |  | 35.4 µM |  | 45.2 µM |  | > 100 µM |
| CC(C)(C)OC(=O)CN1CCc2c(sc3ncnc(N/N=C/c4cccc5ccccc45)c23)C1 | 2.58 µM | > 33.3 µM | 2.16 | 12.4 µM | 1.07 µM | 3.93 µM | 1.74 µM | 16.7 µM | 2.1 µM | 9.83 µM | 3.18 µM | 14.6 µM | 3.51 µM | 8.69 µM | 3.78 µM | 11.9 µM | 3.03 µM | > 33.3 µM | 1.08 µM | > 33.3 µM |
| O=S(=O)(O)c1cc(N=Nc2cc(S(=O)(=O)O)c3cccnc3c2O)ccc1/C=C/c1ccc(N=Nc2cc(S(=O)(=O)O)c3cccnc3c2O)cc1S(=O)(=O)O |  | > 100 µM |  | > 100 µM |  | > 100 µM |  | > 100 µM |  | > 100 µM |  | > 100 µM |  | > 100 µM |  | > 100 µM |  | > 100 µM |  | > 89.8 µM |
| Oc1c(I)cc(-c2nc3ccccc3s2)cc1CN(Cc1ccccn1)Cc1ccccn1 | 0.335 µM | 37.5 µM | 0.415 | 14.4 µM | 0.352 µM | 20.7 µM | 0.273 µM | 5.45 µM | 0.428 µM | 14.3 µM | 0.267 µM | 12.9 µM | 0.288 µM | 4.79 µM | 0.484 µM | 4.81 µM | 0.427 µM | > 100 µM | 0.385 µM | > 100 µM |
| CC(=O)c1cc2c(c3ccsc13)-c1ccccc1CC2 | 53.1 µM | > 100 µM | 19.7 | 79.1 µM | 42 µM | > 100 µM | 28.9 µM | > 100 µM | 4.76 µM | > 100 µM | 34.7 µM | > 100 µM | 15.7 µM | 55.2 µM | 17.2 µM | 67.8 µM | 35.7 µM | > 100 µM | 14.3 µM | 90.5 µM |
| NC(=S)N/N=C\c1nccc2c(N)cccc12 | 0.222 µM |  | 0.178 | 0.509 µM | 1.09 µM | > 100 µM | 0.233 µM | > 100 µM | 0.379 µM | > 100 µM | 0.237 µM |  | 0.316 µM | 3.08 µM | 0.172 µM | 1.02 µM | 0.484 µM | > 27 µM | 0.497 µM | > 100 µM |
| CC(C)(C)[Si](C)(C)OCC1C=CC(n2cnc3c(N)ncnc32)O1 (centres undefined) |  | > 100 µM |  | > 100 µM |  | > 100 µM |  | 38.1 µM |  | 57.1 µM |  | 72.3 µM |  | > 100 µM |  | > 100 µM |  | > 100 µM |  | 54 µM |
| CS(=O)(=O)CCn1c(=O)c(Oc2ccc(F)cc2F)cc2cnc(NC3CCOCC3)nc21 | > 25 µM | > 25 µM | > 25 | > 25 µM | > 25 µM | > 25 µM | 2.64 µM | > 25 µM | > 25 µM | > 25 µM | > 25 µM | > 25 µM | > 25 µM | > 25 µM | 15.8 µM | > 25 µM | > 25 µM | > 25 µM | > 25 µM | > 25 µM |
| C[C@@H](Oc1ccc2[nH]nc(/C=C/c3cnn(CCO)c3)c2c1)c1c(Cl)cncc1Cl | 0.329 µM | > 32.1 µM | 0.572 | 2.49 µM | 0.107 µM | 0.306 µM | 0.0168 µM | 0.0987 µM | 0.866 µM | 3.12 µM | 0.142 µM | 2.41 µM | 1.86 µM | 4.68 µM | < 0.01 µM | 0.274 µM | 0.0938 µM | 5.79 µM | 0.0249 µM | > 33.9 µM |
| COc1ccc(/C=C(/C)[N+](=O)[O-])cc1 |  | 5.75 µM |  | 1.81 µM |  | 4.3 µM |  | 5.66 µM |  | 4.16 µM |  | 3.05 µM |  | 4.59 µM |  | 8.28 µM |  | 18.2 µM |  | 16 µM |
| CCOC(=O)N[C@H]1CCc2c(Br)c(OC)c(OC)c(OC)c2-c2ccc(SC)c(=O)cc21 | 0.0234 µM | > 56.4 µM | < 0.01 | 10.1 µM | < 0.01 µM | 0.0161 µM | < 0.0137 µM | 6.19 µM | < 0.01 µM |  | < 0.01 µM | 14.1 µM | < 0.01 µM | 28.4 µM | < 0.01 µM | < 0.0115 µM | < 0.0184 µM | > 43 µM | < 0.01 µM | > 38.2 µM |
| CN1CCN(CCNc2ccc(CO)c3sc4ccccc4c(=O)c23)CC1 |  | 23.5 µM |  | 8.89 µM |  | 16.5 µM |  | 13.2 µM | 1.98 µM | 4.51 µM |  | 14.6 µM |  | 12 µM | 2.51 µM | 8.2 µM |  | 11.3 µM |  | 14.7 µM |
| O=C(O)c1cc(Cc2ccc(O)c(C(=O)O)c2)ccc1O (tested in a mixture with another compound) | 2.41 µM | 6.26 µM | 12.5 | 33.8 µM | 1.57 µM | 3.41 µM | 1.21 µM | 6.3 µM | 4.2 µM | 16 µM | 9.44 µM | 27.7 µM | 8.55 µM | 23.9 µM | 5.68 µM | 21.9 µM | 9.82 µM | 28 µM | 2.38 µM | > 100 µM |
| CC(O)C(O)C(O)C(/C=N\Nc1ccccc1)=N/Nc1ccccc1 (centres undefined) |  | 38.1 µM |  | 20.9 µM |  | 27.4 µM |  | 36 µM |  | 26.7 µM |  | 27.2 µM |  | 43.5 µM |  | 22.6 µM |  | 28.7 µM |  | 40.8 µM |
| C[C@]12C3CC[C@@]4(CO)C[C@]3(CCC1[C@](C)(C(=O)O)CC[C@@H]2O)CC4=O (some centres undefined) | > 100 µM | > 100 µM | > 100 | > 100 µM | > 100 µM | > 100 µM | > 100 µM | > 100 µM | > 100 µM | > 100 µM | > 100 µM | > 100 µM | > 100 µM | > 100 µM | > 100 µM | > 100 µM | > 100 µM | > 100 µM | > 100 µM | > 100 µM |
| COc1ccc(-c2nnc(N3CCN(C(=O)CN4CCN(c5ccc(Cl)cc5)CC4)CC3)nc2-c2ccc(OC)cc2)cc1 | 35.8 µM | > 100 µM | 22.4 | > 100 µM | 16.9 µM | > 100 µM | 16.2 µM | 39.1 µM | 66.1 µM | > 100 µM | 15 µM | > 100 µM | 21.5 µM | > 100 µM | 27.7 µM | 72.2 µM | 27.4 µM | > 100 µM | 15.2 µM | > 100 µM |
| NC(Cc1ccnnc1)C(=O)O (centres undefined) |  | > 100 µM |  | > 100 µM |  | > 100 µM |  | > 100 µM |  | > 100 µM |  | > 100 µM |  | > 100 µM |  | > 100 µM |  | > 100 µM |  | > 100 µM |
| C(=C\c1nccc2c1[nH]c1ccccc12)/c1ccccc1 | 4.69 µM | > 100 µM | 2.38 | 7.94 µM | 1.56 µM | 3.62 µM | 2.19 µM | 19.8 µM | 0.356 µM | 1.81 µM | 3.26 µM | 13.7 µM | 4.5 µM | 27.7 µM | 4.36 µM | 15.9 µM | 4.09 µM | > 100 µM | 2.25 µM | 37.2 µM |
| O=[N+]([O-])/C=C\c1c[nH]c2ccc(OCc3ccccc3)cc12 |  | 17.1 µM |  | 22.4 µM |  | 13.4 µM |  | 19.4 µM |  | 4.73 µM |  | 19 µM |  | 25.9 µM |  | 22.6 µM |  | 14.8 µM |  | 6.88 µM |
| Cc1cc(C)cc(Nc2ccc([N+](=O)[O-])c(NCCN3CCOCC3)n2)c1 | 0.006 µM and 0.0368 µM | > 100 µM | 0.000235 |  | 0.0023 µM | 0.00795 µM |  | 24.3 µM |  | 0.0115 µM |  | > 100 µM | 16 µM | > 100 µM | 0.000606 µM | 0.00915 µM and 0.0676 µM | 0.00286 µM and 0.02 µM | > 100 µM |  | > 100 µM |

— PubChem BioAssay (NCI)
